Patent US11718612B2, “Inhibitors of receptor interacting protein kinase I for the treatment of disease” (Board of Regents, The University of Texas System, priority 2019, dated 2023)

What was measured:
U937 cells = test: Human U937 cellular necroptosis assay; assay type: cell-based; details: U-937; U937 cells stimulated with 25 ng/mL human TNFalpha and 25 μM z-VAD-FMK; 22 hr; Cell Titer-Glo viability
RIPK1 = RIPK1 (Homo sapiens (Human), UniProt Q13546); test: ADP-Glo kinase assay, RIPK1 activity; assay type: biochemical; details: 5 nM RIPK1, 50 μM ATP, 6 hr reaction
Description: In order to measure RIPK1 activity the ADP-Glo kinase assay (Promega, Catalog #V7002) was used to measure the conversion of ATP to ADP. This enzymatic assay was performed in a 384-well white, Optiplate (Perkin Elmer, Catalog #6007299) with assay buffer consisting of 50 mM HEPES pH 7.5 (Gibco, Catalog #15630-080), 50 mM NaCl (Teknova, Catalog #S0252), 30 mM MgCl2 (Ambion, Catalog #AM9530G), 1 mM DTT (Santa Cruz Biotechnology, Catalog #sc-29089), 0.05% BSA (Sigma, Catalog #A3059-50G) and 0.02% CHAPS (Sigma, Catalog #C5070-5G). Stock solutions of the test compounds were prepared in 100% DMSO (Sigma, Catalog #D2650) and serially diluted 1:3 using 100% DMSO. Compounds were additionally diluted 1:40 in assay buffer, and 2 μL/well were transferred to the assay plate. 4 μL/well (final concentration of 5 nM) of RIPK1 protein (SignalChem, Catalog #R07-11G-05) diluted in assay buffer and added to the assay plate followed by a 10 minute preincutation at room temperature. 4 μL/well of ATP (Promega, Catalog #V7002) (final concentration of 50 μM) diluted in assay buffer were then added to the assay plate followed by a 6 hr reaction time. Final concentrations of RIPK1 and ATP refer to a 10 μL volume. Luminescence was measured using a BioTek Synergy™ NEO plate reader. IC50 values were calculated using a four-parameter logistic curve fit using Genedata Screener software.

Sequence of RIPK1 (Q13546 1-327): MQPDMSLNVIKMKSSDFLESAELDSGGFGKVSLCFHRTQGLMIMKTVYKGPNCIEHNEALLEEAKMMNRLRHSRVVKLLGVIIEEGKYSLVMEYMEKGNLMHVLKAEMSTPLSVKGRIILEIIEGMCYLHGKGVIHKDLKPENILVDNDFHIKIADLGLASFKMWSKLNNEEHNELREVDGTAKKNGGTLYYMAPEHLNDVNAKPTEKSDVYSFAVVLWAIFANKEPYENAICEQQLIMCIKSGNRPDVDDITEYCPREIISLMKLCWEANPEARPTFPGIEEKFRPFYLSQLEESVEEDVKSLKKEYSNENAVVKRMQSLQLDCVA

SMILES | IC50 (U937 cells) [nM] | IC50 (RIPK1) [nM]
O=C(Nc1cccc(Cl)c1F)c1ncn(Cc2ccccc2)n1 [Example 27, 1-benzyl-N-(3-chloro-2-fluorophenyl)-1H-1,2,4-triazole-3-carboxamide] | 851 | 30.6
O=C(Nc1ccc(F)c(Cl)c1F)c1ncn(Cc2ccccc2)n1 [Example 28, 1-benzyl-N-(3-chloro-2,4-difluorophenyl)-1H-1,2,4-triazole-3-carboxamide] | 1470 | 40.3
N#Cc1cccc(Cn2cnc(C(=O)Nc3cccc(Cl)c3F)n2)c1 [Example 29, N-(3-chloro-2-fluorophenyl)-1-(3-cyanobenzyl)-1H-1,2,4-triazole-3-carboxamide] | 356 | 34.1
COc1ccc(NC(=O)c2ncn(Cc3ccccc3)n2)c(F)c1Cl [Example 30, 1-benzyl-N-(3-chloro-2-fluoro-4-methoxy-phenyl)-1H-1,2,4-triazole-3-carboxamide] | 1490 | 110
O=C(Nc1ccc(O)c(Cl)c1F)c1ncn(Cc2ccccc2)n1 [Example 31, 1-benzyl-N-(3-chloro-2-fluoro-4-hydroxy-phenyl)-1H-1,2,4-triazole-3-carboxamide] | 1700 | 160
O=C(Nc1cccc(Cl)c1F)c1ncn(Cc2cnccn2)n1 [Example 32, N-(3-chloro-2-fluoro-phenyl)-1-(pyrazin-2-ylmethyl)-1H-1,2,4-triazole-3-carboxamide] | 1920 | 257
N#Cc1ccc(Cn2cnc(C(=O)Nc3cccc(Cl)c3F)n2)cc1 [Example 33, N-(3-chloro-2-fluoro-phenyl)-1-(4-cyano-benzyl)-1H-1,2,4-triazole-3-carboxamide] | 5420 | 389
N#Cc1cc(Cl)c(F)c(NC(=O)c2ncn(Cc3ccccc3)n2)c1 [Example 35, 1-benzyl-N-(3-chloro-5-cyano-2-fluorophenyl)-1H-1,2,4-triazole-3-carboxamide] | 7290 | 703
Cn1cc(-c2cc(Cl)c(F)c(NC(=O)c3ncn(Cc4ccccc4)n3)c2)cn1 [Example 36, 1-benzyl-N-(3-chloro-2-fluoro-5-(1-methyl-1H-pyrazol-4-yl)phenyl)-1H-1,2,4-triazole-3-carboxamide] | 10000 | 804
O=C(Nc1cccc(Cl)c1F)c1nc2n(n1)[C@H](c1ccccc1)C[C@@H]2F [Example 47, (5S,7S)—N-(3-chloro-2-fluorophenyl)-7-fluoro-5-phenyl-6,7-dihydro-5H-pyrrolo[1,2-b][1,2,4]triazole-2-carboxamide] | 24.8 | 48.4
O=C1c2nn(Cc3cc(F)ccc3F)c(Cl)c2CCN1c1cccc(Cl)c1F [Example 50, 3-Chloro-6-(3-chloro-2-fluorophenyl)-2-(2,5-difluorobenzyl)-5,6-dihydro-2H-pyrazolo[3,4-c]pyridin-7(4H)-one] | 42.5 | 18.6
O=C(Nc1ccc(OC(F)(F)F)cc1F)c1ncn(Cc2ccccc2)n1 [Example 51, 1-benzyl-N-(2-fluoro-4-(trifluoromethoxy)-phenyl)-1H-1,2,4-triazole-3-carboxamide] | 8240 | 807
Cc1nc(C(=O)Nc2ccc(OC(F)(F)F)cc2)nn1Cc1ccccc1 [Example 52, 1-benzyl-5-methyl-N-(4-(trifluoromethoxy)-phenyl)-1H-1,2,4-triazole-3-carboxamide] | > 10000 | 4620
O=C1c2nn(Cc3cncc(F)c3)c(Cl)c2CCN1c1cccc(Cl)c1F [Example 54, 3-Chloro-6-(3-chloro-2-fluorophenyl)-2-((5-fluoropyridin-3-yl)methyl)-5,6-dihydro-2H-pyrazolo[3,4-c]pyridin-7(4H)-one] | 128 | 131
COc1c2c(nn1Cc1cc(F)ccc1F)C(=O)N(c1cccc(Cl)c1F)CC2 [Example 57, 6-(3-Chloro-2-fluorophenyl)-2-(2,5-difluorobenzyl)-3-methoxy-5,6-dihydro-2H-pyrazolo[3,4-c]pyridin-7(4H)-one] | 115 | 22
NC(=O)c1cccc(Cn2nc3c(c2Cl)CCN(c2cccc(Cl)c2F)C3=O)c1 [Example 75, 3-((3-chloro-6-(3-chloro-2-fluorophenyl)-7-oxo-4,5,6,7-tetrahydro-2H-pyrazolo[3,4-c]pyridin-2-yl)methyl)benzamide] | 1160 | 297
Cc1ccc(Cn2cnc(C(=O)Nc3cccc(Cl)c3F)n2)cc1 [Example 86, N-(3-chloro-2-fluorophenyl)-1-(4-methylbenzyl)-1H-1,2,4-triazole-3-carboxamide] | 2080 | 564
Cc1ccc(Cn2cnc(C(=O)Nc3cccc(Cl)c3F)n2)cc1F [Example 87, N-(3-chloro-2-fluorophenyl)-1-(3-fluoro-4-methylbenzyl)-1H-1,2,4-triazole-3-carboxamide] | 4300 | 32.2
O=C(Nc1cccc(Cl)c1F)c1ncn(Cc2cccc(F)c2)n1 [Example 88, N-(3-chloro-2-fluorophenyl)-1-(3-fluorobenzyl)-1H-1,2,4-triazole-3-carboxamide] | 872 | 36.3
O=C(Nc1cccc(Cl)c1F)c1ncn(Cc2ccc(F)cn2)n1 [Example 89, N-(3-chloro-2-fluorophenyl)-1-((5-fluoropyridin-2-yl)methyl)-1H-1,2,4-triazole-3-carboxamide] | 5580 | 1600
Cc1ccc(Cn2cnc(C(=O)Nc3cccc(Cl)c3F)n2)cn1 [Example 90] | 2600 | 1460
O=C(Nc1cccc2nn[nH]c12)c1ncn(Cc2ccccc2)n1 [Example 100, N-(1H-benzo[d][1,2,3]triazol-7-yl)-1-benzyl-1H-1,2,4-triazole-3-carboxamide] | 4140 | 685
O=C1c2nn(Cc3cc(F)ccc3F)c(Br)c2CCN1c1cccc(Cl)c1F [Example 101, 3-Bromo-6-(3-chloro-2-fluorophenyl)-2-(2,5-difluorobenzyl)-2,4,5,6-tetrahydro-7H-pyrazolo[3,4-c]pyridin-7-one] | 16.2 | 17.4
O=C(Nc1cccc(Cl)c1F)c1ncn(Cc2ncccc2F)n1 [Example 102, N-(3-chloro-2-fluorophenyl)-1-((3-fluoropyridin-2-yl)methyl)-1H-1,2,4-triazole-3-carboxamide] | 1260 | 195
